This is an account of results in patent publication US20070203206A1, “2-Pyrrolidone Derivatives And Use Thereof As Factor Xa Inhibitors” (priority 2003, published 2007).

Where a name gives a salt, the structure may show the parent alone.

The target of the first assay is T1, human Factor Xa (Homo sapiens, UniProt P00742).
T1 construct: containing human Factor Xa (final conc. Of 0.0003 U·ml-1)
T1 sequence (P00742 235-488 limits assumed): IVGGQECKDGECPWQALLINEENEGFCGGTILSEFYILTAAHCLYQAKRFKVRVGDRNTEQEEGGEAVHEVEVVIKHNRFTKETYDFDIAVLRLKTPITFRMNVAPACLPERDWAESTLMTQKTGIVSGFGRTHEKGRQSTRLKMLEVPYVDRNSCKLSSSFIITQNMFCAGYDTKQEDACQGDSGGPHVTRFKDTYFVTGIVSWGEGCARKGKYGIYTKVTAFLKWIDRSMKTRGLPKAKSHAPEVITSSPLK
T1 sequence (P00742 41-179 partner limits assumed): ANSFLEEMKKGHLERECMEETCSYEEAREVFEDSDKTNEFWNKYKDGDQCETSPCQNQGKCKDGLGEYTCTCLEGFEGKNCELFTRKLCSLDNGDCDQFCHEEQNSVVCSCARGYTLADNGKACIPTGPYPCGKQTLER
Nature of the assay: In vitro fluorogenic assay for inhibition of Factor Xa. It counts as biochemical. The following applies: Ki value. The protocol:
In Vitro Assay for Inhibition of Factor Xa
Compounds of the present invention were tested for their Factor Xa inhibitory activity as determined in vitro by their ability to inhibit human Factor Xa in a fluorogenic assay, using Rhodamine 110, bis-CBZ-glycylglycyl-L-arginine amide as the fluorogenic substrate. Compounds were diluted from a 10 mM stock solution in dimethylsulfoxide at appropriate concentrations. Assay was performed at room temperature using buffer consisting of: 50 mM Tris-HCl, 150 mM NaCl, 5 mM CaCl2, pH 7.4. containing human Factor Xa (final conc. Of 0.0003 U·ml-1). Compound and enzyme were preincubated for 15 min prior to addition of the substrate (final conc. of 10 μM). The reaction was stopped after 3 hrs with the addition of H-D-Phe-Pro-Arg-Chloromethylketone. […] To obtain IC50 values the data were analysed using ActivityBase® and XLfit®.
Calculation of Ki values: Ki=IC50/(1+[Substrate]/Km)
The Ki value for the above assay can be obtained by dividing the IC50 value by 1.6.
Molecule `CNCCN(C)C(=O)c1ccc(N2CCC(NS(=O)(=O)/C=C(\C)c3ccc(Cl)s3)C2=O)c(F)c1` (centres unmarked) [Example 1, 4-[3-({[(1E)-2-(5-Chloro-2-thienyl)-1-propen-1-yl]sulfonyl}amino)-2-oxo-1-pyrrolidinyl]-3-fluoro-N-methyl-N-[2-(methylamino)ethyl]benzamide] came in with a Ki below 0.1 µM. In turn, `C/C(=C\S(=O)(=O)NC1CCN(c2ccc(C(=O)N(C)Cc3ccccn3)cc2F)C1=O)c1ccc(Cl)s1` (centres unmarked) [Example 3, 4-[3-({[(1E)-2-(5-Chloro-2-thienyl)-1-propen-1-yl]sulfonyl}amino)-2-oxo-1-pyrrolidinyl]-3-fluoro-N-methyl-N-(2-pyridinylmethyl)benzamide] came in with a Ki below 0.1 µM.

Molecule `COCCN(C)C(=O)c1ccc(N2CCC(NS(=O)(=O)/C=C(\C)c3ccc(Cl)s3)C2=O)c(F)c1` (centres unmarked) [Example 5, 4-[3-({[(1E)-2-(5-Chloro-2-thienyl)-1-propen-1-yl]sulfonyl}amino)-2-oxo-1-pyrrolidinyl]-3-fluoro-N-methyl-N-[2-(methyloxy)ethyl]benzamide] returned a Ki below 1 µM. On the same count and under the same terms, for `C/C(=C\S(=O)(=O)NC1CCN(c2ccc(C(=O)N(C)CCc3c[nH]cn3)cc2F)C1=O)c1ccc(Cl)s1` (centres unmarked) [Example 31, 4-[3-({[(1E)-2-(5-Chloro-2-thienyl)-1-propen-1-yl]sulfonyl}amino)-2-oxo-1-pyrrolidinyl]-3-fluoro-N-[2-(1H-imidazol-4-yl)ethyl]-N-methylbenzamide] the value was below 0.1 µM.

On to `C/C(=C\S(=O)(=O)NC1CCN(c2ccc(C(=O)N(C)CCc3cccnc3)cc2F)C1=O)c1ccc(Cl)s1` (centres unmarked) [Example 30, 4-[3-({[(1E)-2-(5-Chloro-2-thienyl)-1-propen-1-yl]sulfonyl}amino)-2-oxo-1-pyrrolidinyl]-3-fluoro-N-methyl-N-[2-(3-pyridinyl)ethyl]benzamide], for which the Ki is below 0.1 µM.

The assay is the same for the next values; noted with them: human Factor Xa, Rhodamine 110 bis-CBZ-glycylglycyl-L-arginine amide substrate 10 μM, 15 min preincubation, room temperature, pH 7.4; Ki = IC50/1.6; read-out: Ki value.
In the case of `C/C(=C\S(=O)(=O)NC1CCN(c2ccc(C(=O)N(C)CCO)cc2F)C1=O)c1ccc(Cl)s1` (centres unmarked) [Example 2, 4-[3-({[(1E)-2-(5-Chloro-2-thienyl)-1-propen-1-yl]sulfonyl}amino)-2-oxo-1-pyrrolidinyl]-3-fluoro-N-(2-hydroxyethyl)-N-methylbenzamide], the Ki was below 1 µM. Still for that read-out and setting: for `CN(C)CCN(C)C(=O)c1ccc(N2CCC(NS(=O)(=O)c3cc4ccc(Cl)cc4s3)C2=O)c(F)c1` (centres unmarked) [Example 25, 4-(3-{[(6-Chloro-1-benzothien-2-yl)sulfonyl]amino}-2-oxo-1-pyrrolidinyl)-N-[2-(dimethylamino)ethyl]-3-fluoro-N-methylbenzamide formate] the value was below 1 µM; for `CN(CCc1cccnc1)C(=O)c1ccc(N2CCC(NS(=O)(=O)c3cc4ccc(Cl)cc4s3)C2=O)c(F)c1` (centres unmarked) [Example 27, 4-(3-{[(6-Chloro-1-benzothien-2-yl)sulfonyl]amino}-2-oxo-1-pyrrolidinyl)-3-fluoro-N-methyl-N-[2-(3-pyridinyl)ethyl]benzamide], below 0.1 µM; for `O=C(NCc1ccncc1)c1ccc(N2CCC(NS(=O)(=O)/C=C/c3ccc(Cl)s3)C2=O)c(F)c1` (centres unmarked) [Example 8, 4-[3-({[(E)-2-(5-Chloro-2-thienyl)ethenyl]sulfonyl}amino)-2-oxo-1-pyrrolidinyl]-3-fluoro-N-(4-pyridinylmethyl)benzamide], below 1 µM. For the molecule `O=C(NCc1cccnc1)c1ccc(N2CCC(NS(=O)(=O)/C=C/c3ccc(Cl)s3)C2=O)c(F)c1` (centres unmarked) [Example 9, 4-[3-({[(E)-2-(5-Chloro-2-thienyl)ethenyl]sulfonyl}amino)-2-oxo-1-pyrrolidinyl]-3-fluoro-N-(3-pyridinylmethyl)benzamide], the Ki is below 1 µM. On the same count and under the same terms, the same measure for `C/C(=C\S(=O)(=O)NC1CCN(c2ccc(C(=O)N(C)CCN(C)C)cc2F)C1=O)c1ccc(Cl)s1` (centres unmarked) [Example 29, 4-[3-({[(1E)-2-(5-chloro-2-thienyl)-1-propen-1-yl]sulfonyl}amino)-2-oxo-1-pyrrolidinyl]-N-[2-(dimethylamino)ethyl]-3-fluoro-N-methylbenzamide formate]: below 0.1 µM; for `CNCCN(C)C(=O)c1ccc(N2CCC(NS(=O)(=O)c3cc4ccc(Cl)cc4s3)C2=O)c(F)c1` (centres unmarked) [Example 26, 4-(3-{[(6-Chloro-1-benzothien-2-yl)sulfonyl]amino}-2-oxo-1-pyrrolidinyl)-3-fluoro-N-methyl-N-[2-(methylamino)ethyl]benzamide formate]: below 0.1 µM; for `C/C(=C\S(=O)(=O)NC1CCN(c2ccc(C(=O)N(C)CCS(C)(=O)=O)cc2F)C1=O)c1ccc(Cl)s1` (centres unmarked) [Example 4, 4-[3-({[(1E)-2-(5-Chloro-2-thienyl)-1-propen-1-yl]sulfonyl}amino)-2-oxo-1-pyrrolidinyl]-3-fluoro-N-methyl-N-[2-(methylsulfonyl)ethyl]benzamide]: below 0.1 µM.

For the molecule `CN(CCN)C(=O)c1ccc(N2CCC(NS(=O)(=O)c3cc4ccc(Cl)cc4s3)C2=O)c(F)c1` (centres unmarked) [Example 28], the Ki is below 1 µM.

The Ki is the equilibrium dissociation constant of an inhibitor or competing ligand from its target.
